The source of these data is US6066619A, “Non-aqueous protic peptide formulations” (Alza Corporation, priority 1999, dated 2000).

A short description of the data set: Gelation of non-aqueous protic solvent formulations on adding polar aprotic solvent. The class given is physicochemical. Conditions: adding polar aprotic solvents such as DMSO to non-aqueous protic solvent formulation. The text has this: Thus, these solvents have an anti-gellant effect.

For `CCNC(=O)[C@@H]1CCCN1C(=O)[C@H](CCCNC(=N)N)NC(=O)[C@H](CC(C)C)NC(=O)[C@@H](CC(C)C)NC(=O)[C@H](Cc1ccc(O)cc1)NC(=O)[C@H](CO)NC(=O)[C@H](Cc1c[nH]c2ccccc12)NC(=O)[C@H](Cc1c[nH]cn1)NC(=O)[C@@H]1CCC(=O)N1` [leuprolide], the “gelation of the formulation” value is listed as “prevents gelation”.

Turning to calcitonin, the “gelation of the formulation” value is “prevents gelation”. In the case of `CC(C)C[C@H](NC(=O)[C@@H](COC(C)(C)C)NC(=O)[C@H](Cc1ccc(O)cc1)NC(=O)[C@H](CO)NC(=O)[C@H](Cc1c[nH]c2ccccc12)NC(=O)[C@H](Cc1cnc[nH]1)NC(=O)[C@@H]1CCC(=O)N1)C(=O)N[C@@H](CCCNC(=N)N)C(=O)N1CCC[C@H]1C(=O)NNC(N)=O` [goserelin] it was “prevents gelation”.
